Legend:
UT = conditions: literature; cited from earlier work
rat UT-A1 = molecular target: T1, rat UT-A1 (Rattus norvegicus, UniProt Q62668); assay: UT-A1 inhibition, fluorescence plate reader assay in MDCK cells expressing UT-A1, AQP1 and YFP-H148Q/V163S; type: cell-based
T1 construct: expressed in transfected cells; host or cells: MDCK cells stably co-expressing rat UT-A1, human AQP1 and YFP-H148Q/V163S
T1 sequence (Q62668 1-929): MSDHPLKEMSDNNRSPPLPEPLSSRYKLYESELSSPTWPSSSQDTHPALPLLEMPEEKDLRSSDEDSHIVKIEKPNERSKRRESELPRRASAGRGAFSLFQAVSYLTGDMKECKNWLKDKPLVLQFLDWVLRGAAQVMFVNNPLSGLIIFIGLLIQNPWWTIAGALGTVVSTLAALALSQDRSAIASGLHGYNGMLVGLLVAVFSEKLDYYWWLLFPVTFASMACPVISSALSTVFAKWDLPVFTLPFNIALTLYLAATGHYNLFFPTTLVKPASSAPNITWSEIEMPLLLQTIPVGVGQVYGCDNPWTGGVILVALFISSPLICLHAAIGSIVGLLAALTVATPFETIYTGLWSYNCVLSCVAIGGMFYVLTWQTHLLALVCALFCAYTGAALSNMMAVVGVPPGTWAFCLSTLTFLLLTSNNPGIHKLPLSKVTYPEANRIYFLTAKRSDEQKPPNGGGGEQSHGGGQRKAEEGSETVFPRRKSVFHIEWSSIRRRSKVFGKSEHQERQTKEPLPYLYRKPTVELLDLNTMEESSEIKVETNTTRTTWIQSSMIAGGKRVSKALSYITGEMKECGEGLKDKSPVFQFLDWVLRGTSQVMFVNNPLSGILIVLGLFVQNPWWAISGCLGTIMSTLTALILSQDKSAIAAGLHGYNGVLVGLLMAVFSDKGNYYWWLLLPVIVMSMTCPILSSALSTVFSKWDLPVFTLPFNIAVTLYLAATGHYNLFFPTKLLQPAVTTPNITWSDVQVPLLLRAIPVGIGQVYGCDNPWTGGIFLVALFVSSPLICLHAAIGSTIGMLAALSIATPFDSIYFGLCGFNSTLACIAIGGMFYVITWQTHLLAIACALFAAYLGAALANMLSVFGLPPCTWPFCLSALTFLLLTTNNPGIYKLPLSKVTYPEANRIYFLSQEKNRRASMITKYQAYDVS
Experimental: Primary screening was done using a collection of 50,000 chemically diverse, drug-like compounds from ChemDiv (San Diego, Calif.). For analysis of structure-activity relationships, >300 commercially available analogs (ChemDiv and Asinex, Winston-Salem, N.C.) were tested. Cells were plated on black 96-well Costar microplates with clear plastic bottoms (Corning, Corning, N.Y.) at 15,000 cells/well and cultured for 24 h at 37° C. before assay. Microplates containing cultured cells were washed twice with PBS and 150 μL of test compound (25 μM final) in PBS was added. Eighty wells contained test compounds, and the first and last columns of each plate contained negative (dimethyl sulfoxide, DMSO) and positive (0.35 mM phloretin) controls. The assays were done on a plate reader (Tecan Trading AG, Switzerland) equipped with a custom YFP filter set. Each assay consisted of a continuous 15-s read (5 Hz) in which 50 μL of 3.2 M urea in PBS was injected at 1 s (at 130 μL/s) to give a 800 mM final urea gradient.
MDCK cells stably expressing rat UT-A1 (see, e.g., Frohlich et al. (2006) Am J Physiol Cell Physiol. 291, C600-D606), YFP-H148Q/V163 S (see, e.g., Galietta, et al. (2001) FEBS Lett. 499, 220-224) and human AQP1, as described previously (see, e.g., Esteva-Font et al. (2013) Chem Biol. 20, 1235-1244), were grown in Dulbecco's modified Eagle medium (DMEM) containing 10% fetal bovine serum (FBS), penicillin G (100 U/mL), streptomycin (100 μg/mL), zeocin (500 μg/mL), geneticin (600 μg/mL) and Hygromycin (500 μg/mL) at 37° C., 5% CO2. A Cell Clone with bright YFP fluorescence and relatively low AQP1 expression was used for the screen to maximize dynamic range.
In order to identify UT-A inhibitors suitable for testing in rats, a collection of 50,000 synthetic small molecules was screened. As diagrammed in FIG. 1A (top), the fluorescence cell-based screen utilized MDCK cells stably rat expressing UT-A1, water channel AQP1 and the cytoplasmic chloride-sensing fluorescent protein YFP-H148Q/V163S. As described and validated previously (see, e.g., Esteva-Font et al. (2013) Chem Biol. 20, 1235-1244), extracellular addition of urea results in osmotic water efflux and cell shrinking, which increases intracellular chloride concentration and reduces YFP fluorescence. Urea entry results in increasing YFP fluorescence as cells re-swell. Inhibitors of UT-A1 urea transport produce a lesser reduction in fluorescence and slowed recovery.

rat UT-B = molecular target: T2, rat UT-B (Rattus norvegicus, UniProt P97689); assay: UT-B inhibition, erythrocyte lysis assay; type: cell-based; conditions: for IC50: rat erythrocytes
T2 construct: endogenous in cells; host or cells: rat erythrocytes (whole rat blood)
T2 sequence (P97689 1-384): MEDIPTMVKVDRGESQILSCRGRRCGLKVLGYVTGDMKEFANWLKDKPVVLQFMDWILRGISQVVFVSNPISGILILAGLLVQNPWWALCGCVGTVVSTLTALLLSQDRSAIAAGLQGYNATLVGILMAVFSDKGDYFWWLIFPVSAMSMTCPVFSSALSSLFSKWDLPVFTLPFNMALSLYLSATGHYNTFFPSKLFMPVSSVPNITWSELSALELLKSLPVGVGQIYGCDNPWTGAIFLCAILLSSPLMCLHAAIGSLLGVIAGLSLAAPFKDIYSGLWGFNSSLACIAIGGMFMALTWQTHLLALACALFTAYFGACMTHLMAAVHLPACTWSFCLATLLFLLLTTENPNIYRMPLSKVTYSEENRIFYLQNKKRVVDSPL
Experimental: As described (see, e.g., Levin et al. (2007) FASEB J. 21, 551-563), whole rat blood was diluted to a hematocrit of ˜1.5% in PBS containing 1.25 M acetamide and 5 mM glucose. Erythrocyte suspensions (100 μL) were added to 96-well round-bottom microplates and test compounds (1 μL) were added. After 15 min incubation, 20 μL of the erythrocyte suspension was added rapidly to each well containing 180 μL of PBS. Following vigorous mixing, erythrocyte lysis was quantified by absorbance at 710 nm. Non-lysed controls (isosmolar buffer) and lysed controls (0.7 mM phloretin) were added in each plate as negative and positive controls, respectively. Percentage erythrocyte lysis was computed as: % lysis=100% (Aneg−Atest)/(Aneg−Apos), where A is absorbance at 710 nm.
Inhibitor selectivity for rat UT-A1 versus UT-B was investigated using an erythrocyte lysis assay of rat UT-B urea transport, which involved measurement of hypotonic lysis (by near-infrared absorbance) of acetamide-loaded erythrocytes following rapid dilution into acetamide-free buffer.

SMILES | IC50 (rat UT-A1) | IC50 (rat UT-B) | selectivity for UT-A1 versus UT-B (rat UT-B; rat UT-A1 versus rat UT-B) | concentration exhibiting activity (UT)
O=C(CCc1ccc(O)cc1)c1c(O)cc(O)cc1O [phloretin] | – | – | – | > 0.5 mM
COc1ccc(F)cc1S(=O)(=O)Nc1cccc(N2CCCS2(=O)=O)c1 [UTA1inh-F04] | 5 µM | > 75 µM | – | –
COc1cc(C)c(C)cc1S(=O)(=O)Nc1cccc(N2CCCS2(=O)=O)c1 [UTA1inh-F05] | 3 µM | 20 µM | – | –
Cc1ccc(C)c(S(=O)(=O)Nc2cc(N3CCCS3(=O)=O)ccc2C)c1 [UTA1inh-F06] | 10 µM | > 75 µM | – | –
COc1ccc(C)cc1S(=O)(=O)Nc1cccc(N2CCCS2(=O)=O)c1 [UTA1inh-F01] | 1 µM | 6 µM | – | –
COc1ccc(F)cc1S(=O)(=O)Nc1cc(N2CCCS2(=O)=O)ccc1C [UTA1inh-F07] | 15 µM | > 75 µM | – | –
CC(=O)Nc1ccc(-c2csc(C)n2)cc1 [UTA1inh-E03] | > 50 µM | > 50 µM | – | –
Cc1cc(C)c(S(=O)(=O)Nc2cccc(N3CCCS3(=O)=O)c2)cc1C [UTA1inh-F03] | 3 µM | 15 µM | – | –
CC(=O)Nc1ccc(-c2csc(-c3ccccc3)n2)cc1 [UTA1inh-E01] | 3 µM | – | high selectivity | –
Cc1ccc(C)c(S(=O)(=O)Nc2cccc(N3CCCS3(=O)=O)c2)c1 [UTA1inh-F02] | 15 µM | > 75 µM | – | –

Now from value to molecule, other results behind:

IC50 (rat UT-A1) | IC50 (rat UT-B) | selectivity for UT-A1 versus UT-B (rat UT-B; rat UT-A1 versus rat UT-B) | SMILES | concentration exhibiting activity (UT)
5 µM | – | – | COc1ccc(OC)c(S(=O)(=O)Nc2ccc(Cl)c(N3CCCS3(=O)=O)c2)c1 [UTA1inh-F12] | –
8 µM | – | – | COc1cc(C)c(C)cc1S(=O)(=O)Nc1ccc(Cl)c(N2CCCS2(=O)=O)c1 [UTA1inh-F13] | –
5 µM | > 75 µM | – | COc1ccc(N2CCCS2(=O)=O)cc1NS(=O)(=O)c1cc(C)ccc1C [UTA1inh-F10] | –
30 µM | 20 µM | – | COc1cc(C)c(C)cc1S(=O)(=O)Nc1cc(N2CCCS2(=O)=O)ccc1C [UTA1inh-F08] | –
1 µM | 8 µM | – | COc1ccc(N2CCCS2(=O)=O)cc1NS(=O)(=O)c1cc(C)ccc1OC [UTA1inh-F09] | –

— patent US11123340B2, “Small-molecule UT-A-selective urea transport inhibitors” (The Regents of the University of California, priority 2014, dated 2021)
